# Test results: patent US20260248787A9, “MEDICAMENT FOR TREATING CANCER COMPRISING OPTICALLY ACTIVE AZABICYCLO RING DERIVATIVE” (Sumitomo Pharma Co., Ltd., priority 2023, published 2026)
# Key:
# Format in all cases: in vivo
# MOLM-13 cells = experiment: Tumor-bearing mice transplanted with MOLM-13 cells, with cytarabine and daunorubicin, T/C (Example 11); conditions: MOLM-13 tumor-bearing mice, oral, 17 days
# Method: (§1) Cytarabine (Cylocide Injection 200 mg/10 mL, Nippon Shinyaku Co., Ltd.) was diluted with saline (Otsuka Saline Injection, Otsuka Pharmaceutical Factory Co., Ltd.) to 8 mg/mL. Daunorubicin (Daunomycin for injection 20 mg, Meiji, Seika Pharma Co., Ltd.) was dissolved in saline (Otsuka Saline Injection, Otsuka Pharmaceutical Factory Co., Ltd.) to 0.2 mg/mL.
# (§2) MOLM-13 cells (DSMZ) were intradermally implanted around the ventral region of 8-week old NOD. CB17-PrkdcSCID/J mice (female, The Jackson Laboratory Japan) at 1×10^6 cells/mouse. […] Cytarabine was intraperitoneally administered to the mice at a dose of 80 mg/kg once a day for 5 days. Daunorubicin was intravenously administered to the mice at a dose of 1 mg/kg once a day for 3 days. The tumor volume was measured over time from the start of the administration, and the reduction effect of the tumor volume due to the compound-administration was evaluated. The tumor volume was calculated by the following formula using short axis and long axis of the tumor measured with an electronic caliper (Mitutoyo).
# (§3) The control administration group in which only the solvent was administered and the test substance administration group were compared, and T/C was calculated using the following formula to evaluate the antitumor effect.
# OCI-AML3 cells = experiment: Tumor-bearing mice transplanted with OCI-AML3 cells, with cytarabine and daunorubicin, T/C (Example 14); conditions: oral, 21 days
# Method: as §1
# as §2, with “OCI-AML3” for “MOLM-13”, “7-week” for “8-week”
# as §3
# [1] = Phase 1/2 clinical study, plasma pharmacokinetic evaluation; conditions: human, oral, 140 mg, Cycle 1 Day 1, 140 mg BID Arm B (with azole), N=2, mean
structure (smiles),measurement,setting,value
"C=C1C[C@@H]2CC[C@H]1[C@@H](C(=O)N1CCC3(CC1)CN(c1ncncc1Oc1ccc(F)cc1C(=O)N(C(C)C)C(C)C)C3)N2 [the present compound, 5-fluoro-2-[(4-{7-[(1S,3S,4R)-5-methylidene-2-azabicyclo[2.2.2]octane-3-carbonyl]-2,7-diazaspiro[3.5]nonan-2-yl}pyrimidin-5-yl)oxy]-N,N-di(propan-2-yl)benzamide]",T/C,MOLM-13 cells; 100 mg/kg,29.8%
same,T/C,MOLM-13 cells; 200 mg/kg,0.3%
same,T/C,OCI-AML3 cells; 100 mg/kg,53.1%
same,T/C,OCI-AML3 cells; 200 mg/kg,41.7%
same,Cmax,[1],3100 ng/mL
